Reference: US20210130339A1, “COMPOUNDS” (GLAXOSMITHKLINE INTELLECTUAL PROPERTY DEVELOPMENT LIMITED, priority 2017, published 2021)
Values joined by “and” are separate entries in the source; they are usually repeats but may differ in a detail not shown here. Identical values can stand only once.

Key:
[1] = target: T1, recombinant full length LRRK2 (Homo sapiens, UniProt Q5S007); experiment: Recombinant cellular LRRK2 AlphaScreen assay; assay type: cell-based; details: LRRK2 Ser935 phosphorylation, SH-SY5Y cells over-expressing recombinant full length LRRK2; read-out: pIC50 in the recombinant cellular LRRK2 AlphaScreen assay (converted)
T1 construct: A BacMam virus expressing full length recombinant LRRK2 was purchased from Invitrogen; host or cells: SH-SY5Y human neuroblastoma cells transduced with BacMam LRRK2 virus (MOI 50)
In short: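 SH-SY5Y neuroblastoma cells transduced with BacMam full-length human LRRK2 (MOI 50, 24 h) were treated with compounds for 60 min at 37 °C, top final 10 µM. Lysates probed by AlphaScreen for pSer935 versus total LRRK2; sigmoidal dose-response fit.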

[2] = target: T2, Full length G2019 human LRRK2 (Homo sapiens, UniProt Q5S007); experiment: Full length G2019 human LRRK2 Inhibition Mass Spectrometry assay; assay type: biochemical; details: LRRKtide substrate, RapidFire mass spectrometry; read-out: pIC50 in the Full length G2019 human LRRK2 Inhibition Mass Spectrometry assay (converted)
T2 construct: purified recombinant Full length Flag-LRRK2 in assay buffer; made in house; host or cells: HEK293 6E cells transduced with BacMam virus (virus generated in Sf9 cells)
Procedure: a. Full Length G2019 Human LRRK2 Inhibition Mass Spectrometry Assay
This assay for Leucine Rich Repeat Kinase 2 (LRRK2) inhibition is based on the direct measurement of the peptide ‘LRRKtide’ (LRRKtide: RLGRDKYKT*LRQIRQ and “*” refers to the site of phosphorylation.) and phosphorylated ‘LRRKtide’ using a high throughput RapidFire mass spectrometry assay. Inhibitors are compounds that reduce the conversion of LRRKtide to phospho-LRRKtide.
HEK293 6E cells were incubated in a 37° C. incubator with a humidified atmosphere of 5% CO2 on an orbital shaker rotating at 110 rpm. On the day of transduction, the cell viability was higher than 98% and the cell density was in the range of 1×10^6˜1.5×10^6 cells/ml. HEK293 6E cells were centrifuged at 1,000 rpm for 10 min, and then the cells were resuspended in fresh Freestyle 293 expression medium (Invitrogen:12338) with 0.1% F-68 (Invitrogen:24040-032) but without antibiotics (G418) at density of 1×10^6 cells/ml. BacMam virus with Flag-hu LRRK2 (genotypically normal) gene was centrifuged at 40,000 g for 2 hours, then resuspended in fresh Freestyle 293 expression medium. The resuspended virus was added into the cells in at MOI of 10. The cells were incubated in a 37° C. incubator with a humidified atmosphere of 5% CO2 in air on an orbital shaker rotating at 110 rpm. Cultures were harvested at approximately 48 hours post-transduction by centrifugation at 4,000 rpm for 20 min and pellets were frozen for purification.
The suspended cells were lysed by sonication on ice for 30 min (2 secs on/4 sec off, 20% amplitude), and centrifuged at 10,000 rpm for 30 minutes at 4° C. The supernatant was incubated with 1 mL per litre of cell culture of anti-Flag magnetic beads (Sigma-Aldrich: M8823) at 4° C. for 3 hours, then the beads were washed by 5 mL (5 column volume) binding buffer (50 mM Tris pH7.5@ 4C, 500 mM NaCl, 0.5 mM EDTA, 0.1% TritonX-100, 10% glycerol, freshly add 2 mM DTT) for three times. The Flag tagged LRRK2 proteins were eluted by Elution buffer (50 mM Tris pH7.5@ 4C, 500 mM NaCl, 0.5 mM EDTA, 0.1% TritonX-100, 10% glycerol, freshly add 2 mM DTT, 250 ug/ml Flag peptide (Sigma-Aldrich:F3290)) at 4° C. for 2 hours. Flag peptide was removed by Zeba Spin Desalting Columns, 7K MWCO (Thermo-Fisher: 89893) and the buffer of eluted LRRK2 proteins was exchanged into Storage Buffer (50 mM Tris pH7.5@4C, 150 mM NaCl, 0.5 mM EDTA, 0.02% Triton X-100, 2 mM DTT and 50% Glycerol) using Amicon Ultra Centrifugal Filter Units (100 kD) (Merck: UFC910096). Fractions containing LRRK2 proteins were pooled, aliquoted and stored at −80° C. Protein concentration was determined by Bradford protein assay, and protein purity was analyzed by NuPAG Novex 4-12% Bis-Tris Protein Gels (Invitrogen: NP0322BOX).
• 1) A 10 mM test compound was dissolved in 100% DMSO and serially diluted 1 in 4. 100 nL of this dilution series was then added to a 384 well, v bottom polypropylene plate, excluding columns 6 and 18. 100 nL of DMSO was added to columns 6 and 18 as controls wells. Assay dilution gave a top final assay concentration of test compound of 100 μM • 2) 50 μl of 1% formic acid in laboratory grade water was added to column 18 using a multidrop combi dispenser to act as a pre stopped assay control. • 3) 5 μl of ‘enzyme solution’ containing 50 nM of purified recombinant Full length Flag-LRRK2 in assay buffer (50 mM Hepes (pH 7.2), 10 mM MgCl2, 150 mM NaCl, 5% glycerol, 0.0025% triton X-100 and 1 mM DTT) was added to all wells using a multidrop combi dispenser, giving a final assay concentration of 25 nM LRRK2 enzyme. […] Test plates were then incubated for 30 minutes at room temperature. • 4) 5 μl ‘substrate solution’ containing 50 uM LRRKtide peptide substrate and 4 mM ATP was added to all wells of the plate using a multidrop combi dispenser giving a final assay concentration of 25 uM LRRKtide and 2 mM ATP. Test plates were then incubated for 1 hour at room temperature. […]

T1 sequence (Q5S007 whole entry): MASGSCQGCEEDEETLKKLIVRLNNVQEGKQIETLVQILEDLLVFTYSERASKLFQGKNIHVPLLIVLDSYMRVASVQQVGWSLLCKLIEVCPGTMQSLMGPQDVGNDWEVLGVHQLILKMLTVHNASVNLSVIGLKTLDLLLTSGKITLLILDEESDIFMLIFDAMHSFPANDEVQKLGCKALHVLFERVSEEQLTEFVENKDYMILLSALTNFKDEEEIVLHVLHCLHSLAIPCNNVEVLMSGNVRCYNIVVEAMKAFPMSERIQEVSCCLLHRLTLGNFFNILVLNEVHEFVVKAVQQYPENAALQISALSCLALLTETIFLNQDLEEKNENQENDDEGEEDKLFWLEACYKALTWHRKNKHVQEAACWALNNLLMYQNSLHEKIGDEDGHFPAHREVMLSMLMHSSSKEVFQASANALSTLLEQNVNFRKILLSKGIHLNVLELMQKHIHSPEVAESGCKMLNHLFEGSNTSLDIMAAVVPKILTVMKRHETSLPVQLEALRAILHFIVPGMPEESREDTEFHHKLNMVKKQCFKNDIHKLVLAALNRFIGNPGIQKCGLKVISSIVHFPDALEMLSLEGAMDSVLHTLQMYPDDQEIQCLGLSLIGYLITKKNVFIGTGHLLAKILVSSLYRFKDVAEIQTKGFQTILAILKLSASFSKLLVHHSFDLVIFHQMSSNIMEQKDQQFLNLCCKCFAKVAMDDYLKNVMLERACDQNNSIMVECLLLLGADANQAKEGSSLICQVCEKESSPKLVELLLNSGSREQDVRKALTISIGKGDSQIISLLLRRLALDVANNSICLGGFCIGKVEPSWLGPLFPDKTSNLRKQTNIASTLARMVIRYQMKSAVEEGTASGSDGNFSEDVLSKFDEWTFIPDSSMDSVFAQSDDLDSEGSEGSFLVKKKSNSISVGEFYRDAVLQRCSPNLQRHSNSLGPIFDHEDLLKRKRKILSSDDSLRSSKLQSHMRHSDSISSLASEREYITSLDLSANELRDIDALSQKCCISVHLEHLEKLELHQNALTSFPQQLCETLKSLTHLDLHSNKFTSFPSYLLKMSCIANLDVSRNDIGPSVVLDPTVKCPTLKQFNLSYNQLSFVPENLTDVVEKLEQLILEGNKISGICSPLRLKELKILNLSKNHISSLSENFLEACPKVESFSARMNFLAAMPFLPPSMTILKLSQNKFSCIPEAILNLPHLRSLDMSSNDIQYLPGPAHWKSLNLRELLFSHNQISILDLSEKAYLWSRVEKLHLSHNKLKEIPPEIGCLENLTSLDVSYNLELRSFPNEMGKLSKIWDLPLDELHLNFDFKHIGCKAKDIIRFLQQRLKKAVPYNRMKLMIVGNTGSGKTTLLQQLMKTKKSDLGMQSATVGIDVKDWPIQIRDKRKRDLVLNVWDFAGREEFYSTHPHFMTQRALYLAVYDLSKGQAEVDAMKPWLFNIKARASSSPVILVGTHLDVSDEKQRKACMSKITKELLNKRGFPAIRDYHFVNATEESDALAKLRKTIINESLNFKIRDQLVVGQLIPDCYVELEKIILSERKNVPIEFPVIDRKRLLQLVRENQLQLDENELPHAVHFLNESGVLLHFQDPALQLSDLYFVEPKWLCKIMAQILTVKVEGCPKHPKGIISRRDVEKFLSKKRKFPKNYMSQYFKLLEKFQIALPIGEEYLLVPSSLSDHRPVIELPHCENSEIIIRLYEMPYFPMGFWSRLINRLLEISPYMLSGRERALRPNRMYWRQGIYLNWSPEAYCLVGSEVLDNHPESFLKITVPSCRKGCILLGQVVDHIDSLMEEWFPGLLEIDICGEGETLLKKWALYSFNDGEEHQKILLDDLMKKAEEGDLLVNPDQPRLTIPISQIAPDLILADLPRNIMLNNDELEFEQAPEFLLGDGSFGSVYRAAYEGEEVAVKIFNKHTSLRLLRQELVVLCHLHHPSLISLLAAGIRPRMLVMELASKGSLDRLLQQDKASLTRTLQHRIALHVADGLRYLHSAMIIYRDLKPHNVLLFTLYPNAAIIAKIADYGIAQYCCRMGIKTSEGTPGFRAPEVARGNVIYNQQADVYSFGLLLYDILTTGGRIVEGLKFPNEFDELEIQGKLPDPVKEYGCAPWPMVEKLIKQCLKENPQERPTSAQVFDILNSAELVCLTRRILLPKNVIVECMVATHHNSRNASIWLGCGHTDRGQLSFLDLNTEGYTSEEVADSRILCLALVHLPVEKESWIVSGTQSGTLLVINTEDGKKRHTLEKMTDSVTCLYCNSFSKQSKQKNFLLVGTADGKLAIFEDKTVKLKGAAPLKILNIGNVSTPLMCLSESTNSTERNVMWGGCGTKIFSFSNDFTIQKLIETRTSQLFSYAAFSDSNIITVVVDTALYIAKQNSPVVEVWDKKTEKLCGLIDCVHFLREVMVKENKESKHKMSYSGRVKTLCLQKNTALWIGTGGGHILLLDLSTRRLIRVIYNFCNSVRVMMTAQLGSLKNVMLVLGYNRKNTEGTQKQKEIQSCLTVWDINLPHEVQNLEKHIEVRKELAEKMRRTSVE
T2 sequence (Q5S007 with tags, fused parts or gaps R50H): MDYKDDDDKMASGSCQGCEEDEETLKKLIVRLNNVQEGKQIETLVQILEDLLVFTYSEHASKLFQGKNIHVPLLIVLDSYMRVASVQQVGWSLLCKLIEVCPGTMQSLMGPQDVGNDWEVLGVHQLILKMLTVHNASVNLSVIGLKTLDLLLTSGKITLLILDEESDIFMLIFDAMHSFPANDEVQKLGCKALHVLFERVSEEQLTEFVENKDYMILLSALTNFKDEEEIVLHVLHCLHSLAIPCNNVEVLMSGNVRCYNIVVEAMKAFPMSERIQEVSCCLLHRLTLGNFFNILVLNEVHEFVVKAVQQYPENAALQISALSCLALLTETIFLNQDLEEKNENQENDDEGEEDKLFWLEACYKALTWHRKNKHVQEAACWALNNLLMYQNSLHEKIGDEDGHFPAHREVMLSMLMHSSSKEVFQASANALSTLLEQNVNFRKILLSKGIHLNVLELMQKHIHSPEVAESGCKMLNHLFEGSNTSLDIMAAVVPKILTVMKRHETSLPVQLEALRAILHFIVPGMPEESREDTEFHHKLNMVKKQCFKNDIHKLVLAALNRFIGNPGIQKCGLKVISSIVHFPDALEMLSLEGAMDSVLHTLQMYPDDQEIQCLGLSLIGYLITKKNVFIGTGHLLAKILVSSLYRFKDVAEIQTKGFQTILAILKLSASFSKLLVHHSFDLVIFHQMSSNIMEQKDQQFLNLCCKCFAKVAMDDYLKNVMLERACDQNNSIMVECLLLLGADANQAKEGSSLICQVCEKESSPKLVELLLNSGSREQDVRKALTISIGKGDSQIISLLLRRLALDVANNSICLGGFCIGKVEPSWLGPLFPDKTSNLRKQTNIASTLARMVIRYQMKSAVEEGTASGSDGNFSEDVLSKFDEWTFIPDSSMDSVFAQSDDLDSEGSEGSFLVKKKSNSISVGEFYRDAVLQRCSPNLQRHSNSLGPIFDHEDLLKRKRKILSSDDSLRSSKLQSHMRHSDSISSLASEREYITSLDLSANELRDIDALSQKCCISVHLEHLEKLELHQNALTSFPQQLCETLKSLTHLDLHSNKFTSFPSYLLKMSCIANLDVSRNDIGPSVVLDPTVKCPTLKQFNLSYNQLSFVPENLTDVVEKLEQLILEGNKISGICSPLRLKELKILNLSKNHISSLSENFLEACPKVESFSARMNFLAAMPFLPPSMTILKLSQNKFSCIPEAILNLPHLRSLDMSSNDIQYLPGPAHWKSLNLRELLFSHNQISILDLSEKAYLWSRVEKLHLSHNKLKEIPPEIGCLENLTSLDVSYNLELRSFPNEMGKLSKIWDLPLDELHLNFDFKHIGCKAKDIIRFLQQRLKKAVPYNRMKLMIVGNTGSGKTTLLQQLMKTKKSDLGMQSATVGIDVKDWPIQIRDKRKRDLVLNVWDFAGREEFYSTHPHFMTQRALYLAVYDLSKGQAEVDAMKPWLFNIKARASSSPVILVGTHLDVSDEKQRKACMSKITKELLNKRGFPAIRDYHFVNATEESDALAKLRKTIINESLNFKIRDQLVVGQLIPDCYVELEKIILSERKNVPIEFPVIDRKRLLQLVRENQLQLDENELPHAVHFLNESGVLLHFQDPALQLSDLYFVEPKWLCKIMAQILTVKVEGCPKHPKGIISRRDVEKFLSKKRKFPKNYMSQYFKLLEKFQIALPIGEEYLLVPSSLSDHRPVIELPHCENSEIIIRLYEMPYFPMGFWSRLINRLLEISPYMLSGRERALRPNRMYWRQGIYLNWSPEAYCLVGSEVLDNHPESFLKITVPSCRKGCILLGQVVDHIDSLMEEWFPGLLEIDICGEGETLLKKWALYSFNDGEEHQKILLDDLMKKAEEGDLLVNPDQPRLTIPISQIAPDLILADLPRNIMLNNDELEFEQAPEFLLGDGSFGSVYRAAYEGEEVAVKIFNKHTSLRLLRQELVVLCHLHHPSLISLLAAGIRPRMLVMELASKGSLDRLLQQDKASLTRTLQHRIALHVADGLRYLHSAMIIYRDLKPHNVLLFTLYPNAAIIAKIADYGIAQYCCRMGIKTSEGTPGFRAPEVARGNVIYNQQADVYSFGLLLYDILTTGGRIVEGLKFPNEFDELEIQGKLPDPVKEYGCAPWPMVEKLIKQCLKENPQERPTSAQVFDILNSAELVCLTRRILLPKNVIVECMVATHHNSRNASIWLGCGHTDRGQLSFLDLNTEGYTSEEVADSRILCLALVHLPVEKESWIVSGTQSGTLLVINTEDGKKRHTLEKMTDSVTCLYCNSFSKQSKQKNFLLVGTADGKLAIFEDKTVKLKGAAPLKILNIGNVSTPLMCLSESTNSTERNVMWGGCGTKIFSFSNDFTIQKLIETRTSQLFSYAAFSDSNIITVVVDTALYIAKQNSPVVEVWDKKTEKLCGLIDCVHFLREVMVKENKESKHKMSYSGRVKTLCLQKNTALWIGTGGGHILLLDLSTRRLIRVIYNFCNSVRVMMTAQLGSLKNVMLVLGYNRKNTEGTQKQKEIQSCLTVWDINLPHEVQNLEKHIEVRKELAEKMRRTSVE

Row | IC50 [1] | IC50 [2] | Compound
1 | ≤ 1000 nM | ≤ 100 nM | Cc1nc(N2CCOC(C(C)O)C2)cc(-n2ncc3cc(C)c(C4CCN(C5CCOC5)CC4)cc32)n1 (single isomer, unassigned) [Example E141, 1-(4-(2-methyl-6-(5-methyl-6-(1-(tetrahydrofuran-3-yl)piperidin-4-yl)-1H-indazol-1-yl)pyrimidin-4-yl)morpholin-2-yl)ethanol]
2 | ≤ 100 nM | ≤ 100 nM | Cc1nc(N2CCO[C@@H](CO)C2)cc(-n2ncc3cc(Cl)c(C4CCN(C5CCOC5)CC4)cc32)n1 (single isomer, unassigned) [Example E130]
3 | ≤ 1000 nM | ≤ 100 nM | Cc1nc(N2CCOC(C(C)O)C2)cc(-n2ncc3cc(C)c(C4CCN(C5CCOC5)CC4)cc32)n1 (single isomer, unassigned) [Example E137, 1-(4-(2-methyl-6-(5-methyl-6-(1-(tetrahydrofuran-3-yl)piperidin-4-yl)-1H-indazol-1-yl)pyrimidin-4-yl)morpholin-2-yl)ethanol]
4 | ≤ 10 nM | ≤ 10 nM | COc1nc(N2CCOCC2)cc(-n2ncc3cc(C)c(C4CCN(C5CCOC5)CC4F)cc32)n1 (single isomer, unassigned) [Example E115, Cis-4-(6-(6-(3-fluoro-1-(tetrahydrofuran-3-yl)-piperidin-4-yl)-5-methyl-1H-indazol-1-yl)-2-methoxypyrimidin-4-yl)morpholine]
5 | ≤ 10 nM | ≤ 10 nM | COc1nc(N2CCO[C@@H](CO)C2)cc(-n2ncc3cc(C)c(C4CCN(C5CCOC5)CC4F)cc32)n1 (single isomer, unassigned) [Example E118]
6 | ≤ 1000 nM | ≤ 100 nM | Cc1nc(N2CCO[C@H](CO)C2)cc(-n2ncc3cc(C)c(C4CCN(C5COCC5C)CC4)cc32)n1 (stereo partly drawn) [Example E155, ((2S)-4-(2-methyl-6-(5-methyl-6-(1-(4-methyltetrahydrofuran-3-yl)piperidin-4-yl)-1H-indazol-1-yl)pyrimidin-4-yl)morpholin-2-yl)methanol]
7 | ≤ 100 nM and 100 nM | ≤ 1000 nM and 63.1 nM | [2H]C1(N2CCC(c3cc4c(cnn4-c4cc(N5CCO[C@H](CO)C5)nc(C)n4)cc3C)CC2)CCOC1 (single isomer, unassigned) [Example E34]
8 | ≤ 1000 nM | ≤ 1000 nM | Cc1nc(N2CCOC[C@@H]2CO)cc(-n2ncc3cc(C)c(C4CCN(C5CCOC5)CC4)cc32)n1 (single isomer, unassigned) [Example E113]
9 | ≤ 1000 nM | ≤ 100 nM | Cc1nc(N2CCOC(C)(CO)C2)cc(-n2ncc3cc(C)c(C4CCN([C@H]5CCOC5)CC4)cc32)n1 (stereo partly drawn) [Example E156, (2-methyl-4-(2-methyl-6-(5-methyl-6-(1-((S)-tetrahydrofuran-3-yl)piperidin-4-yl)-1H-indazol-1-yl)pyrimidin-4-yl)morpholin-2-yl)methanol]
10 | ≤ 1000 nM | ≤ 100 nM | [2H]c1nn(-c2cc(N3CCO[C@@H](CO)C3)nc(C)n2)c2cc(C3CCN([C@@H]4CCOC4)CC3)c(C)cc12 [Example E94, ((R)-4-(6-(3-deuterium-5-methyl-6-(1-((R)-tetrahydrofuran-3-yl)piperidin-4-yl)-1H-indazol-1-yl)-2-methylpyrimidin-4-yl)morpholin-2-yl)methanol]
11 | ≤ 1000 nM | ≤ 100 nM | Cc1nc(N2CCOC(C(C)O)C2)cc(-n2ncc3cc(C)c(C4CCN(C5CCOC5)CC4)cc32)n1 (single isomer, unassigned) [Example E136, 1-(4-(2-methyl-6-(5-methyl-6-(1-(tetrahydrofuran-3-yl)piperidin-4-yl)-1H-indazol-1-yl)pyrimidin-4-yl)morpholin-2-yl)ethanol]
12 | ≤ 1000 nM | ≤ 1000 nM | Cc1nc(N[C@H]2C[C@@H](O)C2)cc(-n2ncc3cc(C)c(C4CCN(C5CCOC5)CC4)cc32)n1 (single isomer, unassigned) [Example E133, Cis-3-((2-methyl-6-(5-methyl-6-(1-(tetrahydrofuran-3-yl)piperidin-4-yl)-1H-indazol-1-yl)pyrimidin-4-yl)amino)cyclobutanol]
13 | ≤ 1000 nM | ≤ 1000 nM | Cc1nc(N2CC(C)(O)C2)cc(-n2ncc3cc(Cl)c(C4CCN(C5CCOC5)CC4)cc32)n1 (single isomer, unassigned) [Example E128, 1-(6-(5-chloro-6-(1-(tetrahydrofuran-3-yl)piperidin-4-yl)-1H-indazol-1-yl)-2-methyl-pyrimidin-4-yl)-3-methylazetidin-3-ol]
14 | ≤ 100 nM | ≤ 100 nM | COc1nc(N2CCO[C@@H](CO)C2)cc(-n2ncc3cc(C)c(C4CCN(C5CCOC5)CC4F)cc32)n1 (single isomer, unassigned) [Example E119]
15 | ≤ 100 nM and 126 nM | 79.4 nM | Cc1nc(N2CCO[C@H](CO)C2)cc(-n2ncc3cc(C)c(C4CCN(C5CCOC5)CC4)cc32)n1 (single isomer, unassigned) [Example E1]

Row | Compound | IC50 [1] | IC50 [2]
16 | Cc1nc(N2CCO[C@@H](CO)C2)cc(-n2ncc3cc(C)c(C4CCN(C5CCOC5)CC4F)cc32)n1 (single isomer, unassigned) [Example E102] | ≤ 1000 nM | ≤ 100 nM
